This passage reports CYP/CatK and IC50 results from US9562042B2, “α-oxoacyl amino-caprolactam” (Seikagaku Corporation, priority 2013, dated 2017).

Structures are written as SMILES.

One data set concerns cathepsin K. Put plainly: Measurement of cathepsin K inhibitory activity (decomposition of fluorescent substrate Z-Gly-Pro-Arg-MCA). Type of data set: biochemical. As to the method: Cathepsin K was prepared as follows. […] Specifically, the decomposition of 20 μM Z-Gly-Pro-Arg-MCA by cathepsin K was measured in 100 mM potassium sodium phosphate, 1 mM EDTA, 8 mM Cysteine, pH 6.0. The reaction was performed at 37° C. for 30 minutes and then quenched by the addition of 2×10^−5 M of calpeptin.

Another data set addresses CYP3A4 (Homo sapiens, UniProt P08684). Put plainly: Measurement of CYP3A4 inhibitory activity (midazolam 1'-hydroxylation in human hepatic microsomes, DI and MBI). As to conditions: human hepatic (liver) microsomes, probe midazolam (1'-hydroxylation), inventive compounds (Table 4); for IC50 at 10 min: direct inhibition, midazolam, 37° C. 10 minutes, read-out: CYP3A inhibitory IC50 (μmol/L) DI; for IC50: mechanism based inhibition, pre-incubated 37° C. 30 minutes before midazolam, read-out: CYP3A inhibitory IC50 (μmol/L) MBI. Type of data set: in vitro ADME. The method, then:
The measurement of CYP3A4 inhibitory activity was performed with reference to the method of Newton et al. (Drug Metab. Dispos. 23, 154-158 (1995)) and the method described in JP 2007-236327 A.
A reaction mixture was prepared by mixing the compound of the present invention with midazolam as a typical substrate for CYP3A4 (see Food and Drug Administration (FDA) Guidance for Industry Drug Interaction Studies—Study Design, Data Analysis, Implications for Dosing, and Labeling Recommendations. FDA web site [online], www.fda.gov/downloads/drugs/guidancecomplianceregulatoryinformation/guidances/ucm292362.pdf), coenzyme NADPH-generating system, human hepatic microsomes, and a phosphate buffer. The reaction mixture was incubated at 37° C. for 10 minutes.
The coenzyme NADPH-generating system solution was prepared by mixing the materials shown in Table 1: the 13 mmol/L β-NADP^+ solution, the 33 mmol/L G-6-P solution, the solution of 10 U/mL G6PDH (Y) (manufactured by Oriental Yeast Co., Ltd.), and the 33 mmol/L MgCl2 solution in a ratio of 1:1:0.4:1 (v:v:v:v). […] The final concentrations of the compounds of the present invention and the comparative compounds were set at the levels considered to be necessary for the calculation of the IC50 values based on the results of the measurement performed at an arbitrary concentration in advance.
After the incubation, the reaction was quenched by the addition of an acetonitrile solution to the reaction mixture. The amount of 1′-hydroxymidazolam produced (the metabolite produced from midazolam by CYP3A4) was measured in the quenched sample with a high-performance liquid chromatography tandem mass spectrometer (LC-MS/MS). Each IC50 value for DI (direct inhibition) was determined from the amount of the produced 1′-hydroxymidazolam and the final concentration of the compound of the present invention or the comparative compound in the reaction mixture.
MBI (mechanism based inhibition) was evaluated as follows. After the reaction mixture not containing midazolam (but containing the compound of the present invention or the comparative compound, the coenzyme NADPH-generating system, the human hepatic microsomes, and the phosphate buffer) was pre-incubated at 37° C. for 30 minutes, midazolam was added to the reaction mixture. The reaction mixture was then incubated at 37° C. for 10 minutes. Subsequently, the reaction was quenched by the addition of an acetonitrile solution to the reaction mixture. The amount of 1′-hydroxymidazolam produced was measured in the quenched sample with an LC-MS/MS. As in the case of DI, each IC50 value for MBI was determined from the amount of the produced 1′-hydroxymidazolam and the final concentration of the compound of the present invention or the comparative compound in the reaction mixture.

CYP3A4, sequence (P08684 2-503): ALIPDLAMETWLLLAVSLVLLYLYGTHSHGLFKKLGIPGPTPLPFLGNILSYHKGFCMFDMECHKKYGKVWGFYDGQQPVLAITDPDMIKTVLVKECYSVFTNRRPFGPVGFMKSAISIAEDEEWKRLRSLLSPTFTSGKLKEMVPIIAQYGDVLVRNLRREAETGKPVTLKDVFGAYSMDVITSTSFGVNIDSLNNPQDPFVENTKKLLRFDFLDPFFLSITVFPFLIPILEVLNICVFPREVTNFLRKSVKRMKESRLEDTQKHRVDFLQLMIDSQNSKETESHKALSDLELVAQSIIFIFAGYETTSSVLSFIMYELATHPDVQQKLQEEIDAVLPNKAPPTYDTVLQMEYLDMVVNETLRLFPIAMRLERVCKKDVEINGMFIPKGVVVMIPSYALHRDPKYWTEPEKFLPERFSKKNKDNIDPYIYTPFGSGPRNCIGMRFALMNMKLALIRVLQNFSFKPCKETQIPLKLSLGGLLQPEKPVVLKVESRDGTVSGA

For the compound `CC(C)[C@H](NC(=O)C1(NC(=O)N2CCSC2)CCCCC1)C(=O)C(=O)N[C@H]1CCCCNC1=O` [Compound 1], the CYP/CatK in the data set on cathepsin K is reported as 56555. In addition, on CYP3A4, the IC50 at 10 min is 43.5 µmol/L and the IC50 stood at 44.4 µmol/L.
The like results for `CC(C)[C@H](NC(=O)C1(NC(=O)N2CCCC2)CCCCC1)C(=O)C(=O)N[C@H]1CCCCNC1=O` [Compound 2] were, in that order, 52214, 101 µmol/L and 73.1 µmol/L.
For the compound `CC(C)[C@H](NC(=O)C1(NC(=O)[C@H]2CCCO2)CCCCC1)C(=O)C(=O)N[C@H]1CCCCNC1=O` [Compound 3], the CYP/CatK in the data set with cathepsin K is recorded as 40294. Besides, at CYP3A4, the IC50 at 10 min was determined as 208 µmol/L and the IC50 was 137 µmol/L.
